Experimental findings from PubChem BioAssay (NCI) are described below.

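Five concentrations, 48 hours, 96-well plates. Here, GI50 denotes the concentration required for 50% inhibition of growth. TGI marks complete inhibition of growth.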

Test systems include SNB-19 CNS; HCT-15 colon; HCC-2998 colon; NCI-H226 lung; SF-268 CNS; NCI-H460 lung; M14 melanoma; T-47D breast.
What all share (test): growth of human tumour cells (NCI), 48 h

As for `CCOC(=O)c1nc2cc(C(F)(F)F)ccc2[n+]([O-])c1C`, the GI50 in the assay on SNB-19 CNS, in the assay on HCT-15 colon, in the assay on HCC-2998 colon, in the assay on NCI-H226 lung, with SF-268 CNS and in the assay on NCI-H460 lung was above 100 µM each time. Further, in the assay with M14 melanoma, the GI50 is above 100 µM. Besides, the TGI in the assay on SNB-19 CNS, with HCT-15 colon, in the assay with HCC-2998 colon, in the assay on NCI-H226 lung, with SF-268 CNS and in the assay on NCI-H460 lung was above 100 µM in each case. For the same compound, the TGI in the assay on M14 melanoma was above 100 µM.
For the compound `CCN1C(=O)N(CC)C2C1NN=c1s/c(=C\c3cccc([N+](=O)[O-])c3)c(=O)n12` (stereo unspecified), the GI50 in the assay with SNB-19 CNS was 0.128 µM; in the assay on HCT-15 colon it was 0.0486 µM; in the assay on HCC-2998 colon it was 0.229 µM; in the assay on NCI-H226 lung, 8.25 µM; with SF-268 CNS, 0.293 µM; in the assay on NCI-H460 lung it was 0.0491 µM. In addition, the GI50 in the assay with M14 melanoma was 0.0533 µM. The TGI with SNB-19 CNS, with HCT-15 colon, in the assay with T-47D breast, with HCC-2998 colon, with NCI-H226 lung and with SF-268 CNS was above 100 µM throughout. Also, the TGI in the assay on NCI-H460 lung and with M14 melanoma was above 100 µM throughout.
For the compound `CC(OC(=O)N(N(CCCl)S(C)(=O)=O)S(C)(=O)=O)c1ccc([N+](=O)[O-])cc1` (stereo unspecified), the GI50 in the assay with SNB-19 CNS is above 88.9 µM; in the assay on HCT-15 colon it was above 100 µM; in the assay with T-47D breast it was above 69.2 µM; with HCC-2998 colon it was 56 µM; in the assay with NCI-H226 lung, 29.1 µM; with SF-268 CNS, above 100 µM. The GI50 is above 78.7 µM in the assay on NCI-H460 lung and 49.4 µM with M14 melanoma. Moreover, the TGI is above 100 µM in the assay with SNB-19 CNS; above 100 µM in the assay on HCT-15 colon; above 100 µM in the assay with T-47D breast; above 100 µM with HCC-2998 colon; 79.3 µM in the assay on NCI-H226 lung; above 100 µM with SF-268 CNS. The TGI with NCI-H460 lung and with M14 melanoma was above 100 µM throughout.
As for `CCN(CC)c1ccc(/C=C/C=C(/C#N)C(N)=S)cc1`, the GI50 in the assay on SNB-19 CNS was 40.4 µM; with HCT-15 colon, 2.59 µM; in the assay on T-47D breast it was 2.96 µM; with HCC-2998 colon, 6.46 µM; in the assay with NCI-H226 lung, 5.27 µM; in the assay on SF-268 CNS, 30.2 µM. The GI50 was 18.1 µM with NCI-H460 lung and 2.53 µM in the assay with M14 melanoma. For the same compound, the TGI in the assay on SNB-19 CNS was above 100 µM; with HCT-15 colon, above 100 µM; with T-47D breast, above 100 µM; in the assay on HCC-2998 colon, above 100 µM; with NCI-H226 lung, 30.9 µM; in the assay with SF-268 CNS, above 100 µM. Further, the TGI was above 100 µM in the assay with NCI-H460 lung and 9.33 µM in the assay with M14 melanoma.
Take `COc1ccc(/C(=N/O)c2cc(OC)c(OC)c(OC)c2)c(OC)c1N`: the GI50 is 5.32 µM with SNB-19 CNS; 3.87 µM in the assay on HCT-15 colon; 26.2 µM in the assay on T-47D breast; 4.29 µM in the assay on HCC-2998 colon; above 100 µM in the assay with NCI-H226 lung; 14.6 µM in the assay on SF-268 CNS. Further, the GI50 was 3.92 µM with NCI-H460 lung and 2.7 µM in the assay on M14 melanoma. Also, the TGI with SNB-19 CNS, in the assay on HCT-15 colon, with T-47D breast, in the assay with HCC-2998 colon, in the assay with NCI-H226 lung and in the assay with SF-268 CNS was above 100 µM throughout. For the same compound, the TGI with NCI-H460 lung and with M14 melanoma was above 100 µM in each case.
Regarding `CC/C=C\C[C@H](O)C/C=C1/C(=O)C=C[C@@H]1C/C=C\CCCC(=O)NC`, the GI50 was 6.91 µM in the assay on SNB-19 CNS; 1.52 µM in the assay on HCT-15 colon; 2.32 µM with T-47D breast; 1.82 µM in the assay with HCC-2998 colon; 2.15 µM with NCI-H226 lung; 2.94 µM with SF-268 CNS. For the same compound, the values for the GI50 in the assay with NCI-H460 lung and in the assay on M14 melanoma were 1.63 µM and 1.76 µM, respectively. Moreover, the TGI in the assay on SNB-19 CNS was 20.9 µM; with HCT-15 colon, 5.09 µM; in the assay on T-47D breast, 12.5 µM; in the assay on HCC-2998 colon, 3.35 µM; with NCI-H226 lung, 4.95 µM; in the assay on SF-268 CNS, 12.9 µM. Besides, the TGI in the assay on NCI-H460 lung came to 4.15 µM; in the assay with M14 melanoma, 4.75 µM.
Consider `FC(F)(F)c1[nH]ncc1-c1nc2ccc3[nH]ncc3c2c2c1CCCC2`, for which the GI50 in the assay with SNB-19 CNS was 2.64 µM; in the assay with HCT-15 colon it was 2.28 µM; in the assay with T-47D breast, 2.03 µM; in the assay with HCC-2998 colon, 1.58 µM; in the assay on NCI-H226 lung, 2.26 µM; in the assay with SF-268 CNS it was 1.73 µM. In addition, the GI50 with NCI-H460 lung is 1.72 µM; in the assay on M14 melanoma, 1.09 µM. In addition, the TGI worked out at 9.09 µM in the assay on SNB-19 CNS; 10.1 µM with HCT-15 colon; 9.39 µM with T-47D breast; 3.89 µM in the assay on HCC-2998 colon; 12.4 µM in the assay with NCI-H226 lung; 4.72 µM in the assay with SF-268 CNS. Further, the results for the TGI in the assay with NCI-H460 lung and in the assay with M14 melanoma were 9.34 µM and 2.9 µM, respectively.
`CNCCCn1c2c(c3ccc(F)cc3c1=O)C(=O)c1cc(OC)cnc1-2`: the GI50 in the assay with SNB-19 CNS is 0.216 µM; in the assay with HCT-15 colon, 0.25 µM; with T-47D breast it was 0.16 µM; in the assay on HCC-2998 colon, 1.15 µM; in the assay with NCI-H226 lung, 0.163 µM; with SF-268 CNS, 0.379 µM. The values for the GI50 in the assay on NCI-H460 lung and in the assay on M14 melanoma were 0.0492 µM and 0.308 µM, respectively. Further, the TGI in the assay on SNB-19 CNS came to 1.78 µM; in the assay with HCT-15 colon, 3.86 µM; in the assay with T-47D breast, 0.704 µM; in the assay on HCC-2998 colon it was 4.17 µM; in the assay on NCI-H226 lung, 0.356 µM; in the assay with SF-268 CNS, 3.55 µM. Further, the TGI with NCI-H460 lung came out at 0.261 µM; with M14 melanoma, 1.63 µM.
For the compound `CCCCCSC1C2C(=O)C(Br)=CC13CCNc1c(O)c4c5c(c13)=[N+]2CCC=5C=N4` (stereo unspecified), the GI50 in the assay with SNB-19 CNS is 2.69 µM; in the assay with HCT-15 colon, 2.04 µM; with T-47D breast, 1.74 µM; in the assay on HCC-2998 colon, 1.25 µM; in the assay on NCI-H226 lung, 3.15 µM; in the assay with SF-268 CNS, 2.1 µM. In addition, the values for the GI50 in the assay on NCI-H460 lung and with M14 melanoma were 1.13 µM and 1.51 µM, respectively. For the same compound, the TGI with SNB-19 CNS came to 4.97 µM; in the assay with HCT-15 colon, 6.09 µM; in the assay with T-47D breast, 6.03 µM; with HCC-2998 colon, 3.88 µM; with NCI-H226 lung, 6.32 µM; with SF-268 CNS, 5.34 µM. Moreover, the TGI in the assay on NCI-H460 lung was 4.32 µM; in the assay on M14 melanoma, 3.68 µM.
